Data on 17 molecules can be found in US8835462B2, “Macrocyclic picolinamides as fungicides” (Dow AgroSciences LLC, priority 2012, dated 2014).

Assay type in all cases: in vivo
One experiment relates to Erysiphe cichoracearum. Kind of experiment: Powdery mildew of cucumber (ERYSCI) fungicidal activity. As to conditions: Golovinomyces cichoracearum, 24 h, 1 Day Protectant, read-out: Disease Control ERYSCI 1DP. The protocol:
Technical grades of materials were dissolved in acetone, which were then mixed with nine volumes of water containing 110 ppm Triton X-100. The fungicide solutions were applied onto wheat seedlings using an automated booth sprayer to run-off. All sprayed plants were allowed to air dry prior to further handling. Wheat plants (variety Yuma) were grown from seed in a greenhouse in 50% mineral soil/50% soil-less Metro mix until the first leaf was fully emerged, with 7-10 seedlings per pot. These plants were inoculated with an aqueous spore suspension of Septoria tritici either prior to or after fungicide treatments. After inoculation the plants were kept in 100% relative humidity (one day in a dark dew chamber followed by two to three days in a lighted dew chamber at 20° C.) to permit spores to germinate and infect the leaf. The plants were then transferred to a greenhouse set at 20° C. for disease to develop. When disease symptoms were fully expressed on the 1st leaves of untreated plants, infection levels were assessed on a scale of 0 to 100 percent disease severity. Percent disease control was calculated using the ratio of disease severity on treated plants relative to untreated plants. Evaluation of Fungicidal Activity: Powdery Mildew of Cucumber (Erysiphe cichoracearum; Bayer Code […]) Cucumber seedlings (variety Bush Pickle) were grown in soil-less Metro mix, with one plant per pot, and used in the test when 12 to 14 days old. Plants were inoculated with a spore suspension 24 hr following fungicide treatments. After inoculation the plants remained in the greenhouse set at 20° C. until disease was fully expressed. Fungicide formulation, application and disease assessment on the sprayed leaves followed the procedures as described in the Example A.

The next experiment concerns Cercospora beticola. Kind of experiment: Leaf spot of sugar beets (CERCBE) fungicidal activity. As to conditions: 24 h, 1 Day Protectant, sugar beet, read-out: Disease Control CERCBE 1DP. The protocol: Technical grades of materials were dissolved in acetone, which were then mixed with nine volumes of water containing 110 ppm Triton X-100. The fungicide solutions were applied onto wheat seedlings using an automated booth sprayer to run-off. All sprayed plants were allowed to air dry prior to further handling. Wheat plants (variety Yuma) were grown from seed in a greenhouse in 50% mineral soil/50% soil-less Metro mix until the first leaf was fully emerged, with 7-10 seedlings per pot. These plants were inoculated with an aqueous spore suspension of Septoria tritici either prior to or after fungicide treatments. After inoculation the plants were kept in 100% relative humidity (one day in a dark dew chamber followed by two to three days in a lighted dew chamber at 20° C.) to permit spores to germinate and infect the leaf. The plants were then transferred to a greenhouse set at 20° C. for disease to develop. When disease symptoms were fully expressed on the 1st leaves of untreated plants, infection levels were assessed on a scale of 0 to 100 percent disease severity. Percent disease control was calculated using the ratio of disease severity on treated plants relative to untreated plants. Evaluation of Fungicidal Activity: Leaf Spot of Sugar Beets (Cercospora Beticola; Bayer Code CERCBE) Sugar beet plants (variety HH88) were grown in soil-less Metro mix and trimmed regularly to maintain an uniform plant size prior to test. Plants were inoculated with a spore suspension 24 hr after fungicide treatments. Inoculated plants were kept in a dew chamber at 22° C. for 48 hr then incubated in a greenhouse set at 24° C. under a clear plastic hood with bottom ventilation until disease symptoms were fully expressed. Fungicide formulation, application and disease assessment on the sprayed leaves followed the procedures as described in the Example A.

Experiment [1] deals with Blumeria graminis f. sp. tritici. Kind of experiment: Wheat powdery mildew (ERYSGT) fungicidal activity. As to conditions: 24 h, 1 Day Protectant, read-out: Disease Control ERYSGT 1DP. The protocol: Technical grades of materials were dissolved in acetone, which were then mixed with nine volumes of water containing 110 ppm Triton X-100. The fungicide solutions were applied onto wheat seedlings using an automated booth sprayer to run-off. All sprayed plants were allowed to air dry prior to further handling. Wheat plants (variety Yuma) were grown from seed in a greenhouse in 50% mineral soil/50% soil-less Metro mix until the first leaf was fully emerged, with 7-10 seedlings per pot. These plants were inoculated with an aqueous spore suspension of Septoria tritici either prior to or after fungicide treatments. After inoculation the plants were kept in 100% relative humidity (one day in a dark dew chamber followed by two to three days in a lighted dew chamber at 20° C.) to permit spores to germinate and infect the leaf. The plants were then transferred to a greenhouse set at 20° C. for disease to develop. When disease symptoms were fully expressed on the 1st leaves of untreated plants, infection levels were assessed on a scale of 0 to 100 percent disease severity. Percent disease control was calculated using the ratio of disease severity on treated plants relative to untreated plants. Evaluation of Fungicidal Activity: Wheat Powdery Mildew (Blumeria Graminis f. sp. Tritici; Synonym: Erysiphe graminis f. sp. Tritici; Bayer Code […]) Wheat plants (variety Yuma) were grown from seed in a greenhouse in 50% mineral soil/50% soil-less Metro mix until the first leaf was fully emerged, with 7-10 seedlings per pot. These plants were inoculated by dusting with infected stock plants 24 hr after fungicide treatments. After inoculation the plants were kept in a greenhouse set at 20° C. for disease to develop. Fungicide formulation, application and disease assessment on the sprayed leaves followed the procedures as described in the Example A.

The test system of experiment [2] is Blumeria graminis f. sp. hordei. The experiment is described as follows: Barley powdery mildew (ERYSGH) fungicidal activity. As to conditions: 24 h, 1 Day Protectant, read-out: Disease Control ERYSGH 1DP. The protocol: Technical grades of materials were dissolved in acetone, which were then mixed with nine volumes of water containing 110 ppm Triton X-100. The fungicide solutions were applied onto wheat seedlings using an automated booth sprayer to run-off. All sprayed plants were allowed to air dry prior to further handling. Wheat plants (variety Yuma) were grown from seed in a greenhouse in 50% mineral soil/50% soil-less Metro mix until the first leaf was fully emerged, with 7-10 seedlings per pot. These plants were inoculated with an aqueous spore suspension of Septoria tritici either prior to or after fungicide treatments. After inoculation the plants were kept in 100% relative humidity (one day in a dark dew chamber followed by two to three days in a lighted dew chamber at 20° C.) to permit spores to germinate and infect the leaf. The plants were then transferred to a greenhouse set at 20° C. for disease to develop. When disease symptoms were fully expressed on the 1st leaves of untreated plants, infection levels were assessed on a scale of 0 to 100 percent disease severity. Percent disease control was calculated using the ratio of disease severity on treated plants relative to untreated plants. Evaluation of Fungicidal Activity: Barley Powdery Mildew (Blumeria Graminis f. sp. Hordei; Synonym: Erysiphe Graminis f. sp. Hordei; Bayer Code […]) Barley seedlings (variety Harrington) were propagated in soil-less Metro mix, with each pot having 8 to 12 plants, and used in the test when first leaf was fully emerged. Test plants were inoculated by dusting with infected stock plants 24 hr after fungicide treatments. After inoculation the plants were kept in a greenhouse set at 20° C. for disease to develop. Fungicide formulation, application and disease assessment on the sprayed leaves followed the procedures as described in the Example A.

Structures are written as SMILES.

In the case of `COc1ccnc(C(=O)N[C@H]2COC[C@H](Cc3ccccc3)[C@@H](OC)[C@H](C)OC2=O)c1OCOC(C)=O` [Compound 39], the pest or weed control at 100 ppm (in the experiment with Erysiphe cichoracearum; in the experiment with Cercospora beticola; in experiment [1]; in experiment [2]) was 0 to 80% each time.
For the molecule `COc1ccnc(C(=O)N[C@H]2COC[C@H](Cc3ccccc3)[C@@H](OCC(C)C)[C@H](C)OC2=O)c1OCOC(=O)C(C)C` [Compound 3], the pest or weed control at 100 ppm (in the experiment on Erysiphe cichoracearum; with Cercospora beticola; in experiment [1]; in experiment [2]) was 80 to 100% each time.
In the case of `COc1ccnc(C(=O)N[C@H]2COC[C@H](Cc3ccccc3)[C@@H](OCC(C)C)[C@H](C)OC2=O)c1OC(C)=O` [Compound 9, 2-(((3S,7S,8R,9S)-7-benzyl-8-isobutoxy-9-methyl-2-oxo-1,5-dioxonan-3-yl)carbamoyl)-4-methoxypyridin-3-yl acetate], the pest or weed control at 100 ppm (in the experiment on Erysiphe cichoracearum; with Cercospora beticola; in experiment [1]; in experiment [2]) was 80 to 100% throughout.
As for `COc1ccnc(C(=O)N[C@H]2COC[C@H](Cc3ccccc3)[C@@H](OCCC(C)OC)[C@H](C)OC2=O)c1OCOC(C)=O` (some centres unmarked) [Compound 46], the pest or weed control at 100 ppm in the experiment with Erysiphe cichoracearum and in the experiment with Cercospora beticola was 80 to 100% throughout.
For the molecule `COc1ccnc(C(=O)N[C@H]2COC[C@H](Cc3ccccc3)[C@@H](OC3CCCC3)[C@H](C)OC2=O)c1OCOC(C)=O` [Compound 106], the pest or weed control at 100 ppm (in the experiment with Erysiphe cichoracearum; in the experiment with Cercospora beticola; in experiment [2]) was 80 to 100% throughout.
In the case of `COc1ccnc(C(=O)N[C@H]2COC[C@H](Cc3ccccc3)[C@@H](OCCC(=O)N(C)C)[C@H](C)OC2=O)c1OCOC(C)=O` [Compound 15], the pest or weed control at 100 ppm (in the experiment with Cercospora beticola; in experiment [1]) was 0 to 80% throughout.
With `CCCO[C@@H]1[C@@H](Cc2ccccc2)COC[C@H](NC(=O)c2nccc(OC)c2OCOC(C)=O)C(=O)O[C@H]1C` [Compound 22], the pest or weed control at 100 ppm (in the experiment with Erysiphe cichoracearum; with Cercospora beticola; in experiment [1]; in experiment [2]) was 80 to 100% in each case.
Regarding `CCCCCO[C@@H]1[C@@H](Cc2ccccc2)COC[C@H](NC(=O)c2nccc(OC)c2OCOC(C)=O)C(=O)O[C@H]1C` [Compound 26], the pest or weed control at 100 ppm in the experiment with Erysiphe cichoracearum was 80 to 100%; in the experiment on Cercospora beticola, 80 to 100%; in experiment [1] it was 0 to 80%; in experiment [2], 80 to 100%.
In the case of `COc1ccnc(C(=O)N[C@H]2COC[C@H](Cc3ccccc3)[C@@H](OCC(C)C)[C@H](C)OC2=O)c1OCOC(C)=O` [Compound 8, (2-((3S,7S,8R,9S)-7-benzyl-8-isobutoxy-9-methyl-2-oxo-1,5-dioxonan-3-ylcarbamoyl)-4-methoxypyridin-3-yloxy)methyl acetate], the pest or weed control at 100 ppm (in the experiment with Erysiphe cichoracearum; with Cercospora beticola; in experiment [1]; in experiment [2]) was 80 to 100% in each case.
For `COc1ccnc(C(=O)N[C@H]2COC[C@H](Cc3ccccc3)[C@@H](OC3CCCC3)[C@H](C)OC2=O)c1OCOC(=O)C(C)C` [Compound 108], the results for the pest or weed control at 100 ppm (with Erysiphe cichoracearum; with Cercospora beticola; in experiment [2]) were 0 to 80%, 80 to 100% and 80 to 100%, respectively.
With `COc1ccnc(C(=O)N[C@H]2COC[C@H](Cc3ccccc3)[C@@H](OC(=O)c3ccccc3)[C@H](C)OC2=O)c1OCOC(C)=O` [Compound 37], the pest or weed control at 100 ppm is 80 to 100% in the experiment with Cercospora beticola, 0 to 80% in experiment [1] and 0 to 80% in experiment [2].
With `COc1ccnc(C(=O)N[C@H]2COC[C@H](Cc3ccccc3)[C@@H](OCC(C)C)[C@H](C)OC2=O)c1OCOC(=O)C(C)(C)C` [Compound 7], the pest or weed control at 100 ppm with Erysiphe cichoracearum lay within 80 to 100%; with Cercospora beticola, 80 to 100%; in experiment [1] it was 0 to 80%; in experiment [2], 80 to 100%.
As for `COc1ccnc(C(=O)N[C@H]2COC[C@H](Cc3ccccc3)[C@@H](OCCCC(F)(F)F)[C@H](C)OC2=O)c1OCOC(C)=O` [Compound 23], the pest or weed control at 100 ppm (in the experiment with Erysiphe cichoracearum; with Cercospora beticola; in experiment [1]; in experiment [2]) was 80 to 100% throughout.
Turning to `COc1ccnc(C(=O)N[C@H]2COC[C@H](Cc3ccccc3)[C@@H](OC(=O)C3CC3)[C@H](C)OC2=O)c1OCOC(C)=O` [Compound 38], the pest or weed control at 100 ppm lay within 0 to 80% in the experiment with Erysiphe cichoracearum, 80 to 100% in the experiment with Cercospora beticola, 0 to 80% in experiment [1] and 80 to 100% in experiment [2].
`COc1ccnc(C(=O)N[C@H]2COC[C@H](Cc3ccccc3)[C@@H](OC3CCCC3)[C@H](C)OC2=O)c1OC(C)=O` [Compound 107]: the pest or weed control at 100 ppm with Erysiphe cichoracearum is 0 to 80%; in the experiment with Cercospora beticola, 80 to 100%; in experiment [2], 80 to 100%.
With `COc1ccnc(C(=O)N[C@H]2COC[C@H](Cc3ccccc3)[C@@H](Oc3ccccc3)[C@H](C)OC2=O)c1OCOC(C)=O` [Compound 40], the pest or weed control at 100 ppm in the experiment on Cercospora beticola lay within 80 to 100%; in experiment [1] it was 0 to 80%.
Take `COc1ccnc(C(=O)N[C@H]2COC[C@H](Cc3ccccc3)[C@@H](OCC(F)F)[C@H](C)OC2=O)c1OCOC(C)=O` [Compound 44]: the pest or weed control at 100 ppm with Erysiphe cichoracearum and with Cercospora beticola was 0 to 80% each time.
